Experiments:
Pim-1 = molecular target: T1, Pim-1 (Homo sapiens, UniProt P11309); assay: TR-FRET assay, Pim-1 kinase (phosphorylation of Bad Ser112); type: biochemical; conditions: TR-FRET; ATP 40 μM; read-out: IC50 Pim1
T1 construct: His6-labelled recombinant full-length human Pim-1, Pim-2 or Pim-3 protein; His6; made in house
Procedure, shortened: (§1)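 Recombinant His6-tagged full-length human Pim-1, Pim-2 or Pim-3 phosphorylates His6-tagged full-length human Bad at 40 μM ATP (apparent KM). Phospho-Ser112 is detected by TR-FRET between Eu-labelled anti-phosphoBad and APC-labelled anti-His6 (665/615 nm ratio); 10-point duplicate series, top typically 30 μM, IC50 from 4-parameter logistic fit.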

PLK1 = PLK1 (Homo sapiens, UniProt P53350); assay: PLK1 biochemical inhibition
Sequence of PLK1 (P53350 whole entry, species assumed): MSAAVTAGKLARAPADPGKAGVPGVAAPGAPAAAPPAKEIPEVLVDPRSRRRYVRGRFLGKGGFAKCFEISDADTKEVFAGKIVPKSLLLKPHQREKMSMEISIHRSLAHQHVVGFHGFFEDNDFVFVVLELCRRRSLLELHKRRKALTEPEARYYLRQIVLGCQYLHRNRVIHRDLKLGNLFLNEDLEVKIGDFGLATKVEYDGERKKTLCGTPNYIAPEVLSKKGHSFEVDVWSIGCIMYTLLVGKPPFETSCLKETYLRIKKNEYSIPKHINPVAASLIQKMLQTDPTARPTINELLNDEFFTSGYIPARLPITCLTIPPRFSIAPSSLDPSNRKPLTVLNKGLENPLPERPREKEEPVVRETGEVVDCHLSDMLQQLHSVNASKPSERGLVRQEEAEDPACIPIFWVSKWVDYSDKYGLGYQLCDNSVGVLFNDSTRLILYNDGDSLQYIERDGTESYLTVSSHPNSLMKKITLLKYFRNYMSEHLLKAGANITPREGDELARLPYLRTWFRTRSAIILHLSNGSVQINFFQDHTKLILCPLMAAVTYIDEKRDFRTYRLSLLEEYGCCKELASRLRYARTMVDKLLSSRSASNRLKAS

Pim-2 = molecular target: T2, Pim-2 (Homo sapiens, UniProt Q9P1W9); assay: TR-FRET assay, Pim-2 kinase (phosphorylation of Bad Ser112); type: biochemical; conditions: TR-FRET; ATP 40 μM; read-out: IC50 Pim2
T2 construct: His6-labelled recombinant full-length human Pim-1, Pim-2 or Pim-3 protein; His6; made in house
T2 sequence (Q9P1W9 whole entry): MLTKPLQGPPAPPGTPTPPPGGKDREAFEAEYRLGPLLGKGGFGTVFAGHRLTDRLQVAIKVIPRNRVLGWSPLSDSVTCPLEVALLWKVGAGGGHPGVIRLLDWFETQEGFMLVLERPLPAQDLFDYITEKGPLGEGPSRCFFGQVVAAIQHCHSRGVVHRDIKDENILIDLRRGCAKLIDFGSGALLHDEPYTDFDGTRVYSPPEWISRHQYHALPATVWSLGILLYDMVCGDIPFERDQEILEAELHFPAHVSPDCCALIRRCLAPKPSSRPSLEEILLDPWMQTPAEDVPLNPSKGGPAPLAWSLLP
Procedure, shortened: as §1

Pim-3 = molecular target: T3, Pim-3 (Homo sapiens, UniProt Q86V86); assay: TR-FRET assay, Pim-3 kinase (phosphorylation of Bad Ser112); type: biochemical; conditions: TR-FRET; ATP 40 μM; read-out: IC50 Pim3
T3 construct: His6-labelled recombinant full-length human Pim-1, Pim-2 or Pim-3 protein; His6; made in house
Procedure, shortened: as §1

T1 sequence (P11309 whole entry): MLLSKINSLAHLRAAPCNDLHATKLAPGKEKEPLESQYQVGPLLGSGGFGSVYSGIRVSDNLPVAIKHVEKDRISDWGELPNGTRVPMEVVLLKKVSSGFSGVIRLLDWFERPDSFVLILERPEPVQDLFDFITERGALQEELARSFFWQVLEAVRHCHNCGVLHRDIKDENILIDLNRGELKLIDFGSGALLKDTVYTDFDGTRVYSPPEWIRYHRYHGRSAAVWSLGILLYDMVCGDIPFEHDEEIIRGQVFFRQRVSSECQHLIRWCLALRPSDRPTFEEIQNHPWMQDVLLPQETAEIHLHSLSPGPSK

Compound	IC50 (Pim-1)	IC50 (PLK1)	IC50 (Pim-2)	IC50 (Pim-3)
Fc1cnc2[nH]c3cnc(-c4cccnc4)cc3c2c1 [Example 2, 3-fluoro-6-(pyrid-3-yl)-9H-pyrrolo[2,3-b:5,4-c′] dipyridine]	100 to 1000 nM	100 to 1000 nM	–	–
CCCN(C)C(=O)c1cnc2[nH]c3cnc(-c4cccnc4)cc3c2c1 [Example 6, N-methyl-N-propyl-6-(pyrid-3-yl)-9H-pyrrolo[2,3-b:5,4-c′]dipyridine-3-carboxamide]	100 to 1000 nM	> 5000 nM	1000 to 5000 nM	1000 to 5000 nM
Fc1cnc2[nH]c3cnc(-c4cccnc4)cc3c2c1C1CC1 [Example 32, 4-cyclopropyl-3-fluoro-6-(pyrid-3-yl)-9H-pyrrolo[2,3-b:5,4-c′]dipyridine]	1 to 100 nM	1 to 100 nM	1000 to 5000 nM	1 to 100 nM
O=C(c1ccccc1)c1c(F)cnc2[nH]c3cnc(-c4cccnc4)cc3c12 [Example 34, [3-fluoro-6-(pyrid-3-yl)-9H-pyrrolo[2,3-b:5,4-c′]-dipyrid-4-yl](phenyl)-methanone]	1 to 100 nM	100 to 1000 nM	> 5000 nM	1000 to 5000 nM
O=C(c1c(F)cnc2[nH]c3cnc(-c4cccnc4)cc3c12)N1CCOCC1 [Example 36, [3-fluoro-6-(pyrid-3-yl)-9H-pyrrolo[2,3-b:5,4-c′]-dipyrid-4-yl](morpholin-4-yl)methanone]	100 to 1000 nM	1000 to 5000 nM	> 5000 nM	1000 to 5000 nM
c1cnc2[nH]c3cnc(-c4ccoc4)cc3c2c1 [Example 40, 6-furan-3-yl-9H-pyrrolo[2,3-b:5,4-c′]dipyridine]	100 to 1000 nM	> 5000 nM	> 5000 nM	1000 to 5000 nM
O=S(=O)(CCl)Nc1ccc(-c2c(F)cnc3[nH]c4cnc(-c5cccnc5)cc4c23)cc1 [Example 45, 1-chloro-N-{4-[3-fluoro-6-(pyrid-3-yl)-9H-pyrrolo[2,3-b:5,4-c′]dipyrid-4-yl]-phenyl}-methanesulfonamide]	1 to 100 nM	1 to 100 nM	1000 to 5000 nM	1 to 100 nM
COc1cc(-c2c(F)cnc3[nH]c4cnc(-c5cccnc5)cc4c23)ccc1NS(C)(=O)=O [Example 47, N-{-4-[3-fluoro-6-(pyrid-3-yl)-9H-pyrrolo[2,3-b:5,4-c′]dipyrid-4-yl]-2-methoxyphenyl}-methanesulfonamide]	1 to 100 nM	100 to 1000 nM	1000 to 5000 nM	1 to 100 nM
CN(c1ccc(-c2c(F)cnc3[nH]c4cnc(-c5cccnc5)cc4c23)cc1)S(C)(=O)=O [Example 48, N-{-4-[3-fluoro-6-(pyrid-3-yl)-9H-pyrrolo[2,3-b:5,4-c′]dipyrid-4-yl]-phenyl}-N-methyl-methanesulfonamide]	1 to 100 nM	100 to 1000 nM	100 to 1000 nM	1 to 100 nM
CS(=O)(=O)NCc1cccc(-c2c(F)cnc3[nH]c4cnc(-c5cccnc5)cc4c23)c1 [Example 62, N-{3-[3-fluoro-6-(pyrid-3-yl)-9H-pyrrolo[2,3-b:5,4-c′]-dipyrid-4-yl]benzyl}-methanesulfonamide]	1 to 100 nM	1 to 100 nM	1000 to 5000 nM	1 to 100 nM
COc1ccccc1-c1c(F)cnc2[nH]c3cnc(-c4cccnc4)cc3c12 [Example 63, 3-fluoro-4-(2-methoxyphenyl)-6-(pyrid-3-yl)-9H-pyrrolo[2,3-b:5,4-c′]-dipyridine]	1 to 100 nM	1 to 100 nM	> 5000 nM	100 to 1000 nM
CS(=O)(=O)NCc1ccc(-c2c(F)cnc3[nH]c4cnc(-c5cccnc5)cc4c23)cc1 [Example 66, N-{4-[3-fluoro-6-(pyrid-3-yl)-9H-pynolo[2,3-b:5,4-c′]-dipyrid-4-yl]benzyl}-methanesulfonamide]	1 to 100 nM	1 to 100 nM	100 to 1000 nM	1 to 100 nM
CCCN(CCC)CCCN1CCN(c2c(F)cnc3[nH]c4cnc(-c5cccnc5)cc4c23)CC1 [Example 88, 3-{4-[3-fluoro-6-(pyrid-3-yl)-9H-pyrrolo[2,3-b:5,4-c′]dipyrid-4-yl]piperazin-1-yl}-N,N-dipropylpropan-1-amine]	1 to 100 nM	1000 to 5000 nM	100 to 1000 nM	1 to 100 nM
CCN(CC)CCCN1CCN(c2c(F)cnc3[nH]c4cnc(-c5cccnc5)cc4c23)CC1 [Example 89, N,N-diethyl-3-{4-[3-fluoro-6-(pyrid-3-yl)-9H-pyrrolo[2,3-b:5,4-c′]dipyrid-4-yl]piperazin-1-yl}propan-1-amine]	1 to 100 nM	1000 to 5000 nM	1000 to 5000 nM	100 to 1000 nM
Oc1ccc(-c2c(F)cnc3[nH]c4cnc(-c5cccnc5)cc4c23)cc1 [Example 95, 4-[3-fluoro-6-(pyrid-3-yl)-9H-pyrrolo[2,3-b:5,4-c′]dipyrid-4-yl]phenol]	1 to 100 nM	1 to 100 nM	100 to 1000 nM	100 to 1000 nM
CCN(CC)CCn1nc(C)c(-c2cnc3[nH]c4cnc(-c5cccnc5)cc4c3c2)c1C [Example 125, 2-{3,5-dimethyl-4-[6-(pyrid-3-yl)-9H-pyrrolo[2,3-b:5,4-c′]dipyrid-3-yl]-1H-pyrazol-1-yl}-N,N-diethyl-ethanamine]	1 to 100 nM	1000 to 5000 nM	–	1 to 100 nM
NCCCOc1ccc(-c2cnc3[nH]c4cnc(-c5cccnc5)cc4c3c2)cc1 [Example 155, 3-{4-[6-(pyrid-3-yl)-9H-pyrrolo[2,3-b:5,4-c′]dipyrid-3-yl]-phenoxy}propan-1-amine]	1 to 100 nM	–	100 to 1000 nM	1 to 100 nM
Cc1cc(N2CCN(C(=O)OC(C)(C)C)CC2)ncc1-c1cnc2[nH]c3cnc(-c4cccnc4)cc3c2c1 [Example 156, 2-methyl-2-propyl 4-{4-methyl-5-[6-(pyrid-3-yl)-9H-pyrrolo[2,3-b:5,4-c′]dipyrid-3-yl]-pyrid-2-yl}piperazine-1-carboxylate]	1 to 100 nM	–	> 5000 nM	100 to 1000 nM
Cc1cc(N2CCNCC2)ncc1-c1cnc2[nH]c3cnc(-c4cccnc4)cc3c2c1 [Example 157, 3-[4-methyl-6-(piperazin-1-yl)pyrid-3-yl]-6-(pyrid-3-yl)-9H-pyrrolo[2,3-b:5,4-c′]-dipyridine]	1 to 100 nM	–	100 to 1000 nM	1 to 100 nM
c1cncc(-c2cc3c(cn2)[nH]c2ncc(-c4ccc(N5CCNCC5)nc4)cc23)c1 [Example 158, 3-[6-(piperazin-1-yl)pyrid-3-yl]-6-(pyrid-3-yl)-9H-pyrrolo[2,3-b:5,4-c′]dipyridine]	1 to 100 nM	–	100 to 1000 nM	1 to 100 nM

Second part, the compound after the results:

IC50 (Pim-1)	IC50 (PLK1)	IC50 (Pim-2)	IC50 (Pim-3)	Compound
1000 to 5000 nM	–	> 5000 nM	1000 to 5000 nM	COc1cncc(-c2cc3c(cn2)[nH]c2ncc(F)cc23)c1 [Example 159, 3-fluoro-6-(5-methoxypyrid-3-yl)-9H-pyrrolo[2,3-b:5,4-c′]dipyridine]
100 to 1000 nM	–	> 5000 nM	1000 to 5000 nM	COc1ccncc1-c1cc2c(cn1)[nH]c1ncc(F)cc12 [Example 160, 3-fluoro-6-(4-methoxypyrid-3-yl)-9H-pyrrolo[2,3-b:5,4-c′]dipyridine]
100 to 1000 nM	–	> 5000 nM	100 to 1000 nM	CSc1cncc(-c2cc3c(cn2)[nH]c2ncc(F)cc23)c1 [Example 161, 3-fluoro-6-[5-(methylsulfanyl)pyrid-3-yl]-9H-pyrrolo[2,3-b:5,4-c′]dipyridine]
> 5000 nM	1000 to 5000 nM	–	> 5000 nM	Fc1cnc2[nH]c3cnc(-c4ccsc4)cc3c2c1 [Example 162, 3-fluoro-6-(thiophen-3-yl)-9H-pyrrolo[2,3-b:5,4-c′]dipyridine]
100 to 1000 nM	–	> 5000 nM	1000 to 5000 nM	CCN(CC)CCCn1cc(-c2cc3c(cn2)[nH]c2ncc(OC)cc23)cn1 [Example 166, N,N-diethyl-3-[4-(3-methoxy-9H-pyrrolo[2,3-b:5,4-c′]dipyrid-6-yl)-1H-pyrazol-1-yl]-propan-1-amine]
100 to 1000 nM	–	> 5000 nM	100 to 1000 nM	COc1cnc2[nH]c3cnc(-c4cnn(CCCCCN)c4)cc3c2c1 [Example 168, 5-[4-(3-methoxy-9H-pyrrolo[2,3-b:5,4-c′]dipyrid-6-yl)-1H-pyrazol-1-yl]pentan-1-amine]
100 to 1000 nM	–	> 5000 nM	100 to 1000 nM	COc1cnc2[nH]c3cnc(-c4cnn(CCC5CCCCN5C)c4)cc3c2c1 (stereo not shown) [Example 169, 3-methoxy-6-{1-[2-(1-methylpiperid-2-yl)ethyl]-1H-pyrazol-4-yl}-9H-pyrrolo[2,3-b:5,4-c′]dipyridine]
1 to 100 nM	–	100 to 1000 nM	100 to 1000 nM	C=CCn1cc(-c2cc3c(cn2)[nH]c2nccc(-c4ccc(C(=O)OC)cc4)c23)cn1 [Example 170, methyl 4-{6-[1-(prop-2-en-1-yl)-1H-pyrazol-4-yl]-9H-pyrrolo[2,3-b:5,4-c′]dipyrid-4-yl}benzoate]
1 to 100 nM	–	1 to 100 nM	1 to 100 nM	Cn1cc(-c2cc3c(cn2)[nH]c2ncc(F)c(-c4ccc(NS(C)(=O)=O)cc4)c23)cn1 [Example 171, N-{-4-[3-fluoro-6-(1-methyl-1H-pyrazol-4-yl)-9H-pyrrolo[2,3-b:5,4-c′]dipyrid-4-yl]-phenyl}methane sulfonamide]
> 5000 nM	> 5000 nM	> 5000 nM	–	O=C(O)c1cc2c(cn1)[nH]c1ncccc12 [Example 172, 9H-pyrrolo[2,3-b:5,4-c′]dipyridine-6-carboxylic acid]

From US20110178053A1, “AZACARBOLINE DERIVATIVES, PREPARATION METHOD THEREOF AND THERAPEUTIC USE OF SAME” (SANOFI-AVENTIS, priority 2008, published 2011)
